This note sets out measurements from DBAASP.

Structures are written as SMILES. ≈ marks a conversion by molar mass, not a printed value.

Test systems include Bacillus cereus; Escherichia coli; Staphylococcus aureus; Bacillus subtilis.
Holding throughout (assay): ≥ marks a high value that may be exact or a test limit, other limits are often not marked, values filed in µg/mL are converted to µM
For test [1], the system named is Acinetobacter baumannii ATCC 19606.
In test [2] the test system is Bacillus subtilis KCTC 3068.
Test [3] deals with Escherichia coli KCTC 1682.
Test [4] deals with Pseudomonas aeruginosa KCTC 1637.
Test [5] deals with Salmonella typhimurium KCTC 1926.
Test [6] concerns Staphylococcus aureus KCTC 1621.
For test [7], the system named is Staphylococcus epidermidis KCTC 1917.

What is called MIC is the lowest concentration found to suppress growth. Low values mean inhibition by little substance, high ones a need for much substance. Consider `CC(C)C[C@H](NC(=O)[C@@H](N)Cc1ccccc1)C(=O)NCC(=O)N[C@@H](CCCCN)C(=O)N[C@H](C(=O)N[C@@H](Cc1ccccc1)C(=O)N[C@@H](CCCCN)C(=O)N[C@@H](CCCCN)C(=O)N[C@@H](C)C(=O)N[C@@H](CO)C(=O)N[C@@H](CCCCN)C(=O)N[C@H](C(=O)N[C@@H](Cc1ccccc1)C(=O)N1CCC[C@H]1C(=O)N[C@@H](C)C(=O)N[C@H](C(=O)N[C@@H](Cc1ccccc1)C(=O)NCC(=O)N[C@@H](CCCCN)C(=O)N[C@H](C(=O)O)C(C)C)C(C)C)C(C)C)C(C)C` [FLGKVFKKASKVFPAVFGKV], for which the MIC is ≥ 58.2 µM in the test on Bacillus cereus, 14.6 µM (≈ 32 µg/mL) in the test on Escherichia coli and > 58.2 µM against Staphylococcus aureus.

With `CC[C@H](C)[C@H](NC(=O)[C@@H]1CCCN1C(=O)[C@H](CC(C)C)NC(=O)[C@@H](N)Cc1ccccc1)C(=O)N[C@@H](C)C(=O)NCC(=O)N[C@@H](CCCCN)C(=O)N[C@@H](CC(C)C)C(=O)N[C@@H](CC(C)C)C(=O)N[C@@H](CO)C(=O)NCC(=O)N[C@@H](CC(C)C)C(=O)N[C@@H](CO)C(=O)NCC(=O)N[C@@H](CC(C)C)C(=O)N[C@@H](CC(C)C)C(=O)O` [FLPIAGKLLSGLSGLL], in test [1], the MIC was > 62.5 µM.

For the compound `CC[C@H](C)[C@H](NC(=O)[C@H](CC(C)C)NC(=O)[C@H](C)NC(=O)[C@@H]1CCCN1C(=O)[C@H](CC(C)C)NC(=O)CN)C(=O)N[C@@H](CO)C(=O)N[C@@H](Cc1c[nH]c2ccccc12)C(=O)N[C@H](C(=O)N[C@@H](CCCCN)C(=O)N[C@@H](CCCN=C(N)N)C(=O)N[C@@H](CCCCN)C(=O)N[C@@H](CCCN=C(N)N)C(=O)N[C@@H](CCC(N)=O)C(=O)N[C@@H](CCC(N)=O)C(N)=O)[C@@H](C)CC` [GLPALISWIKRKRQQ], the MIC in the test on Bacillus subtilis stood at 3.12 µM (≈ 5.6 µg/mL); against Escherichia coli, 49.5 µM (≈ 88.9 µg/mL); with Staphylococcus aureus, 3.12 µM (≈ 5.6 µg/mL).

As to `CC[C@H](C)[C@H](NC(=O)[C@H](CC(C)C)NC(=O)[C@H](C)NC(=O)[C@@H]1CCCN1C(=O)[C@H](CC(C)C)NC(=O)CN)C(=O)N[C@@H](CO)C(=O)N[C@@H](Cc1c[nH]c2ccccc12)C(=O)N[C@H](C(=O)N[C@@H](CCCCN)C(=O)N[C@@H](CCCN=C(N)N)C(=O)N[C@@H](CCCCN)C(=O)N[C@@H](CCCN=C(N)N)C(N)=O)[C@@H](C)CC` [GLPALISWIKRKR], the MIC was 0.423 µM (≈ 0.65 µg/mL) in the test on Bacillus subtilis, 27.1 µM (≈ 41.7 µg/mL) against Escherichia coli and 0.845 µM (≈ 1.3 µg/mL) in the test with Staphylococcus aureus.

For the compound `CC[C@H](C)[C@H](NC(=O)[C@H](Cc1c[nH]c2ccccc12)NC(=O)[C@H](CO)NC(=O)[C@H](CO)NC(=O)[C@H](CC(C)C)NC(=O)[C@H](C)NC(=O)[C@@H]1CCCN1C(=O)[C@H](CC(C)C)NC(=O)CN)C(=O)N[C@@H](CCCCN)C(=O)N[C@@H](CCCN=C(N)N)C(=O)N[C@@H](CCCCN)C(=O)N[C@@H](CCCN=C(N)N)C(=O)N[C@@H](CCC(N)=O)C(=O)N[C@@H](CCC(N)=O)C(N)=O` [GLPALSSWIKRKRQQ], the MIC in the test with Bacillus subtilis worked out at 22.1 µM (≈ 39 µg/mL); in the test with Escherichia coli, 176 µM (≈ 311 µg/mL); in the test on Staphylococcus aureus, 8.26 µM (≈ 14.6 µg/mL).

As for `CC[C@H](C)[C@H](NC(=O)[C@H](CC(C)C)NC(=O)[C@H](C)NC(=O)[C@H](CO)NC(=O)[C@H](CC(C)C)NC(=O)CN)C(=O)N[C@@H](CO)C(=O)N[C@@H](Cc1c[nH]c2ccccc12)C(=O)N[C@H](C(=O)N[C@@H](CCCCN)C(=O)N[C@@H](CCCN=C(N)N)C(=O)N[C@@H](CCCCN)C(=O)N[C@@H](CCCN=C(N)N)C(=O)N[C@@H](CCC(N)=O)C(=O)N[C@@H](CCC(N)=O)C(N)=O)[C@@H](C)CC` [GLSALISWIKRKRQQ], the MIC in the test with Bacillus subtilis is 0.897 µM (≈ 1.6 µg/mL); against Escherichia coli it was 3.5 µM (≈ 6.25 µg/mL); against Staphylococcus aureus it was 1.74 µM (≈ 3.1 µg/mL).

Take `CC[C@H](C)[C@H](NC(=O)[C@H](CCCN=C(N)N)NC(=O)CN)C(=O)N[C@@H](CCCCN)C(=O)N[C@@H](CCCN=C(N)N)C(=O)N[C@H](C(=O)N[C@@H](CCCN=C(N)N)C(=O)N[C@@H](CCCCN)C(=O)N[C@@H](CCCCN)C(=O)N[C@H](C(=O)N[C@@H](CCCCN)C(=O)N[C@@H](CCCCN)C(=O)N[C@@H](CC(C)C)C(=O)N[C@H](C(=O)N[C@@H](CCCCN)C(=O)N[C@@H](CCCCN)C(=O)N[C@@H](CC(C)C)C(=O)N[C@@H](CO)C(N)=O)[C@@H](C)CC)[C@@H](C)CC)[C@@H](C)CC` [GRIKRIRKKIKKLIKKLS]: the minimum inhibitory concentration (MIC) in test [2] amounted to 4 µM (≈ 8.82 µg/mL); in test [3], 4 µM (≈ 8.82 µg/mL); in test [4] it was 4 µM (≈ 8.82 µg/mL); in test [5], 2 µM (≈ 4.41 µg/mL); in test [6], 4 µM (≈ 8.82 µg/mL); in [7], 8 µM (≈ 17.6 µg/mL).

`CC(C)C[C@H](NC(=O)[C@H](CCCCN)NC(=O)[C@H](CCCCN)NC(=O)[C@H](Cc1c[nH]c2ccccc12)NC(=O)[C@H](CC(C)C)NC(=O)[C@H](CCCCN)NC(=O)[C@H](CCCCN)NC(=O)[C@H](Cc1c[nH]c2ccccc12)NC(=O)[C@H](CCCCN)NC(=O)[C@H](CCCCN)NC(=O)[C@H](CCCN=C(N)N)NC(=O)[C@H](Cc1c[nH]c2ccccc12)NC(=O)[C@H](CCCN=C(N)N)NC(=O)[C@H](CCCCN)NC(=O)[C@H](Cc1c[nH]c2ccccc12)NC(=O)[C@H](CCCN=C(N)N)NC(=O)CN)C(=O)N[C@@H](CO)C(N)=O` [GRWKRWRKKWKKLWKKLS]: the MIC in [2] worked out at 2 µM (≈ 5 µg/mL); in test [3], 4 µM (≈ 9.99 µg/mL); in test [4], 4 µM (≈ 9.99 µg/mL); in test [5], 2 µM (≈ 5 µg/mL); in [6], 4 µM (≈ 9.99 µg/mL); in test [7], 8 µM (≈ 20 µg/mL).

In the case of `CC[C@H](C)[C@H](N)C(=O)NCC(=O)N[C@@H](CCCCN)C(=O)N[C@@H](CCC(=O)O)C(=O)N[C@@H](Cc1ccccc1)C(=O)N[C@@H](CCCCN)C(=O)N[C@@H](CCCN=C(N)N)C(=O)N[C@H](C(=O)N[C@H](C(=O)N[C@@H](CCC(N)=O)C(=O)N[C@@H](CCCN=C(N)N)C(=O)N[C@H](C(=O)N[C@@H](CCCCN)C(=O)N[C@@H](CC(=O)O)C(=O)N[C@@H](Cc1ccccc1)C(=O)N[C@@H](CC(C)C)C(=O)N[C@@H](CCCN=C(N)N)C(=O)N[C@@H](CC(N)=O)C(=O)N[C@@H](CC(C)C)C(=O)O)[C@@H](C)CC)C(C)C)[C@@H](C)CC` [IGKEFKRIVQRIKDFLRNL], the MIC in test [2] was determined as 4 µM (≈ 9.5 µg/mL); in test [3] it was 8 µM (≈ 19 µg/mL); in test [4], 16 µM (≈ 38 µg/mL); in test [5], 8 µM (≈ 19 µg/mL); in [6], 4 µM (≈ 9.5 µg/mL); in [7], 4 µM (≈ 9.5 µg/mL).

As to `CC[C@H](C)[C@H](N)C(=O)N[C@@H](CC(C)C)C(=O)NCC(=O)N[C@@H](CCCCN)C(=O)N[C@H](C(=O)N[C@@H](CC(C)C)C(=O)N[C@@H](CCC(=O)O)C(=O)NCC(=O)N[C@H](C(=O)N[C@@H](CCCCN)C(=O)N[C@@H](CO)C(=O)N[C@@H](CC(C)C)C(=O)N[C@@H](Cc1ccccc1)C(N)=O)[C@@H](C)CC)[C@@H](C)CC` [ILGKILEGIKSLF], the MIC was 16 µM (≈ 22.9 µg/mL) in test [3]; 16 µM (≈ 22.9 µg/mL) in test [4]; 16 µM (≈ 22.9 µg/mL) in test [5]; 4 µM (≈ 5.72 µg/mL) in test [6]; ≥ 32 µM in [7].

Regarding `CC[C@H](C)[C@H](N)C(=O)N[C@@H](CC(N)=O)C(=O)N[C@@H](Cc1c[nH]c2ccccc12)C(=O)N[C@@H](CCCCN)C(=O)N[C@@H](CCCCN)C(=O)N[C@H](C(=O)N[C@@H](Cc1ccccc1)C(=O)N[C@@H](CCC(=O)O)C(=O)N[C@@H](CCCCN)C(=O)N[C@H](C(=O)N[C@@H](CO)C(=O)N[C@@H](CC(N)=O)C(=O)N[C@@H](CC(C)C)C(=O)N[C@H](C(N)=O)C(C)C)C(C)C)[C@@H](C)CC` [INWKKIFEKVSNLV], the MIC in the test with Bacillus subtilis was found to be 22.5 µM (≈ 38.6 µg/mL); against Escherichia coli it was 12.5 µM (≈ 21.5 µg/mL).

Take `CC[C@H](C)[C@H](N)C(=O)N[C@@H](Cc1c[nH]c2ccccc12)C(=O)N[C@@H](CC(N)=O)C(=O)N[C@@H](CCCCN)C(=O)N[C@H](C(=O)N[C@@H](C)C(=O)N[C@@H](CCCCN)C(=O)N[C@@H](CO)C(=O)N[C@H](C(=O)NCC(=O)N[C@@H](CCCCN)C(=O)N[C@H](C(=O)N[C@@H](CC(C)C)C(=O)N[C@@H](CCC(=O)O)C(=O)N[C@@H](CCCCN)C(=O)N[C@@H](C)C(=O)N[C@@H](CC(C)C)C(N)=O)C(C)C)[C@@H](C)CC)[C@@H](C)CC` [IWNKIAKSIGKVLEKAL]: the MIC in the test on Bacillus subtilis is ≥ 35 µM; in the test on Escherichia coli, 15 µM (≈ 28.7 µg/mL).

Turning to `CC[C@H](C)[C@H](NC(=O)[C@H](CCCCN)NC(=O)[C@H](CCCCN)NC(=O)[C@H](CC(C)C)NC(=O)[C@@H](N)CCCCN)C(=O)N[C@@H](Cc1c[nH]c2ccccc12)C(=O)N[C@@H](Cc1c[nH]c2ccccc12)C(=O)N[C@H](C(=O)N[C@@H](CCCCN)C(=O)N[C@H](C(=O)N[C@@H](CCCCN)C(=O)N[C@@H](CCCCN)C(N)=O)C(C)C)[C@@H](C)CC` [KLKKIWWIKVKK], the MIC in test [2] came to 7.82 µM (≈ 12.5 µg/mL); in test [3] it was 7.82 µM (≈ 12.5 µg/mL); in [4], 3.91 µM (≈ 6.25 µg/mL); in [5], 0.976 µM (≈ 1.56 µg/mL); in [6] it was 3.91 µM (≈ 6.25 µg/mL); in test [7], 3.91 µM (≈ 6.25 µg/mL).

Regarding `CC(C)C[C@H](NC(=O)[C@H](CC(C)C)NC(=O)[C@H](CCCCN)NC(=O)[C@H](CC(C)C)NC(=O)[C@H](CC(C)C)NC(=O)[C@H](CCCCN)NC(=O)[C@H](CCCCN)NC(=O)[C@H](CC(C)C)NC(=O)[C@H](CC(C)C)NC(=O)[C@H](CCCCN)NC(=O)[C@H](CCCCN)NC(=O)[C@H](Cc1c[nH]c2ccccc12)NC(=O)[C@@H](N)CCCCN)C(N)=O` [KWKKLLKKLLKLL], the MIC in test [2] amounted to 4 µM (≈ 6.61 µg/mL); in [3], 8 µM (≈ 13.2 µg/mL); in test [4], 8 µM (≈ 13.2 µg/mL); in test [5], 8 µM (≈ 13.2 µg/mL); in [6], 8 µM (≈ 13.2 µg/mL); in test [7] it was 4 µM (≈ 6.61 µg/mL).
